Consider eleven molecules from ChEMBL document CHEMBL1201862, “PubChem BioAssay data set” (2004).

Several values for one entry are separate records, joined by “and”; a condition that tells them apart may be missing. Identical values can stand only once.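 96-well plates; 48 h exposure; 5 concentrations. Endpoints by linear interpolation between flanking doses. Not reached: highest tested concentration assigned. Here, GI50 denotes the concentration required for 50% inhibition of growth.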 Activity calls are given as the source filed them. Rule as the data show it: active = GI50 up to about 1.1 µM and inactive = higher. Where only a bound is given, the exact number is not on record here.

What all share (assay): NCI-60 cell line screen, 48 h
Assay [1] has as its system SK-MEL-2.
Assay [2] concerns BT-549.
Assay [3] relates to M14.
Assay [4] relates to OVCAR-5.
Assay [5] deals with NCI-H522.
The subject of assay [6] is SN12C.
Assay [7] relates to RPMI-8226.
The subject of assay [8] is NCI-H226.
In assay [9] the test system is U-251.
Assay [10] deals with HOP-92.
Assay [11] concerns SF-268.
Assay [12] concerns COLO 205.
In assay [13] the test system is CAKI-1.
The test system of assay [14] is SNB-19.
In assay [15] the test system is UACC-257.
In assay [16] the test system is Malme-3M.
The test system of assay [17] is 786-0.
Assay [18] has as its system NCI/ADR-RES.
Assay [19] has as its system MOLT-4.
For assay [20], the system named is HCC 2998.

Consider `O=C1N(c2ccccc2)C2(c3ccccc3)CC3CCCC13S2` (stereo not drawn), for which the GI50 in [1] was 14.4 µM (inactive); in assay [2] it was 51.3 µM (inactive); in [3], > 100 µM (inactive); in assay [4], > 100 µM (inactive); in assay [5] it was 23.7 µM (inactive); in [6], 96.2 µM (inactive). Moreover, the GI50 in [7] was 27.5 µM (inactive); in assay [8] it was 63.4 µM (inactive); in assay [9], 49.5 µM (inactive); in [10], 67.5 µM (inactive); in [11] it was 58.1 µM (inactive); in assay [12] it was 43 µM (inactive). Further, the GI50 in [13] was > 100 µM (inactive); in assay [14] it was > 100 µM (inactive); in assay [15] it was 16.7 µM (inactive); in assay [16] it was 40.9 µM (inactive); in assay [17], 78.9 µM (inactive); in assay [18], 40.8 µM (inactive). For the same molecule, the GI50 in assay [19] is 24.2 µM (inactive).

In the case of `N#Cc1c2c(c(Nc3cccc(C(F)(F)F)c3)n3c1nc1ccccc13)CCC2`, the GI50 was 60.7 µM (inactive) in assay [2]; > 100 µM (inactive) in assay [4]; > 100 µM (inactive) in assay [5]; > 100 µM (inactive) in assay [6]; > 100 µM (inactive) in [7]; > 100 µM (inactive) in assay [8]. Further, the GI50 in [9] was > 100 µM (inactive); in [10], 6.5 µM (inactive); in [11], > 100 µM (inactive); in assay [12] it was > 100 µM (inactive); in assay [13], > 100 µM (inactive); in assay [15] it was > 100 µM (inactive). For the same molecule, the GI50 in assay [16], in [17], in [18] and in assay [19] was > 100 µM (inactive) throughout.

`COC(=O)c1c(C#N)[nH]c(-c2ccsc2)c1C(=O)OC`: the GI50 in [1], in [2], in assay [3], in [4], in assay [5] and in assay [6] was > 100 µM (inactive) throughout. Further, the GI50 in [7] was 40.4 µM (inactive); in [8], > 100 µM (inactive); in assay [9], > 100 µM (inactive); in [10], 51.6 µM (inactive); in assay [11], > 100 µM (inactive); in [12] it was > 100 µM (inactive). Moreover, the GI50 in assay [13] is 33.4 µM (inactive); in assay [15] it was 40.6 µM (inactive); in assay [16], > 100 µM (inactive); in assay [17], > 100 µM (inactive); in assay [18], > 100 µM (inactive); in [19], > 100 µM (inactive).

For the molecule `CC(C)(C)NCC(O)COc1cccc2[nH]c(C#N)cc12` (stereo not drawn) [CYANOPINDOLOL], the GI50 was > 100 µM (inactive) in assay [1]; > 100 µM (inactive) in assay [2]; > 100 µM (inactive) in assay [3]; > 100 µM (inactive) in [4]; 27.2 µM (inactive) in [5]; > 100 µM (inactive) in [6]. The GI50 is > 100 µM (inactive) in assay [7]; > 100 µM (inactive) in assay [8]; > 100 µM (inactive) in assay [9]; > 100 µM (inactive) in assay [11]; 56 µM (inactive) in assay [12]; > 100 µM (inactive) in assay [13]. Moreover, the GI50 in assay [14], in [16], in [17], in assay [18] and in [19] was > 100 µM (inactive) in each case.

With `OC12CC3c4ccccc4NC3C3Oc4cccc5c4C31CCN(CC1CC1)C2C5` (stereo not drawn), the GI50 in assay [1] was 19.5 µM (inactive); in assay [2] it was 16.3 µM (inactive); in assay [3] it was 17.7 µM (inactive); in assay [4] it was 21.1 µM (inactive); in [5] it was 21.7 µM (inactive); in [6] it was 17.2 µM (inactive). Also, the GI50 in [7] is 18.4 µM (inactive); in assay [8], 26.1 µM (inactive); in [9], 17.3 µM (inactive); in assay [10], 11.4 µM (inactive); in assay [11], 18.2 µM (inactive); in [12] it was 20.9 µM (inactive). Also, the GI50 in assay [13] is 17.6 µM (inactive); in assay [14], 18.2 µM (inactive); in [15], 17.8 µM (inactive); in [16], 19.7 µM (inactive); in [17] it was 16.7 µM (inactive); in [18], 21.2 µM (inactive). For the same molecule, the GI50 in [19] was 15.5 µM (inactive).

`CC(=O)OCC1OC(SC2=NC(=O)CS2)C(OC(C)=O)C(OC(C)=O)C1OC(C)=O` (stereo not drawn): the GI50 in [2] is 93.5 µM (inactive) and 62.7 µM (inactive); in assay [20], > 100 µM (inactive); in [3], > 100 µM (inactive); in assay [4] it was > 100 µM (inactive); in assay [5], 47 µM (inactive) and 78.9 µM (inactive); in [6], > 100 µM (inactive). Besides, the GI50 is 51.8 µM (inactive) and 27.4 µM (inactive) in assay [7]; > 100 µM (inactive) in assay [8]; > 100 µM (inactive) in assay [11]; 68.7 µM (inactive) in assay [13]; > 100 µM (inactive) in [14]; > 100 µM (inactive) in [15]. Further, the GI50 in assay [16] was > 100 µM (inactive); in assay [17], > 100 µM (inactive); in [18], > 100 µM (inactive); in assay [19], 57.7 µM (inactive) and 51.8 µM (inactive).

In the case of `COc1ccc(/C=C2\C[C@H]3[C@@H]4CC=C5C[C@@H](O)CC[C@]5(C)[C@H]4CC[C@]3(C)\C2=N\O)cc1`, the GI50 in [1] is 15.6 µM (inactive); in assay [2], 7.69 µM (inactive); in [3] it was 12.7 µM (inactive); in [5] it was 4.97 µM (inactive); in assay [6] it was 18.1 µM (inactive); in assay [7], 2.26 µM (inactive). Also, the GI50 is 19.3 µM (inactive) in assay [8]; 10.5 µM (inactive) in assay [9]; 25.6 µM (inactive) in [10]; 4.95 µM (inactive) in assay [11]; 10 µM (inactive) in assay [12]; 2.58 µM (inactive) in assay [13]. For the same molecule, the GI50 in assay [14] was 25.8 µM (inactive); in [15], 7.21 µM (inactive); in assay [16] it was 24.9 µM (inactive); in assay [17], 14.3 µM (inactive); in assay [18], 19.4 µM (inactive); in [19] it was 5.89 µM (inactive).

`COC(CNC(=O)C(C)NC(=O)/C=C/c1ccccc1)OC` (stereo not drawn): the GI50 in assay [1] was > 100 µM (inactive); in [2] it was > 100 µM (inactive); in assay [3], > 100 µM (inactive); in assay [4] it was > 100 µM (inactive); in assay [5], 62.1 µM (inactive); in assay [6], > 100 µM (inactive). Also, the GI50 in assay [7], in assay [8], in assay [9], in [10], in assay [11] and in [12] was > 100 µM (inactive) in each case. In addition, the GI50 in assay [13], in [14], in [15], in [16], in [17] and in assay [18] was > 100 µM (inactive) each time. Moreover, the GI50 in assay [19] was > 100 µM (inactive).

Take `COc1cccc(-c2cc(O)c3cc(C)cnc3n2)c1`: the GI50 in assay [1] is 0.0293 µM (active); in assay [2], > 100 µM (inactive); in assay [20], 1.51 µM (inactive); in assay [3], 0.0543 µM (active); in assay [4] it was 0.82 µM (active); in assay [5], 0.0389 µM (active). In addition, the GI50 in assay [6] was 0.0538 µM (active); in [7] it was 0.0421 µM (active); in assay [8] it was 0.0757 µM (active); in [9], 0.0473 µM (active); in assay [11] it was 0.594 µM (active); in [12] it was 0.0449 µM (active). For the same molecule, the GI50 was 0.0389 µM (active) in [13]; 0.0667 µM (active) in [14]; > 100 µM (inactive) in assay [15]; 0.0488 µM (active) in [17]; 0.0295 µM (active) in [18]; 0.115 µM (active) in assay [19].

Regarding `Nc1[nH]c(=S)[nH]c(=O)c1/N=N/c1c(Br)cc(S(N)(=O)=O)cc1Br`, the GI50 in [1], in [2], in assay [3], in assay [4], in assay [5] and in [6] was > 100 µM (inactive) in each case. Further, the GI50 in assay [7], in assay [8], in assay [9], in assay [10], in [11] and in assay [12] was > 100 µM (inactive) each time. Besides, the GI50 in [13], in [14], in assay [15], in [16], in assay [17] and in assay [18] was > 100 µM (inactive) in each case. Besides, in assay [19], the GI50 is > 100 µM (inactive).

In the case of `CC1OC(OC2C(CO)OC(O[C@H]3CC[C@@]4(C)C(=CC[C@H]5[C@@H]6C[C@@H]7O[C@](O)(CC[C@H](C)COC8OC(CO)C(O)C(O)C8O)[C@@H](C)[C@@H]7[C@@]6(C)CC[C@@H]54)C3)C(OC3OC(C)C(O)C(O)C3O)C2O)C(O)C(O)C1O` (stereo partly drawn), the GI50 in assay [1] is 6.21 µM (inactive); in [2], 4.48 µM (inactive); in assay [3], 3.05 µM (inactive); in assay [4], 10.8 µM (inactive); in assay [5] it was 2.88 µM (inactive); in assay [6], 10 µM (inactive). Moreover, the GI50 was 6.25 µM (inactive) in [7]; 9.62 µM (inactive) in [8]; 3.15 µM (inactive) in assay [9]; 3.56 µM (inactive) in assay [10]; 3.36 µM (inactive) in assay [11]; 5.01 µM (inactive) in assay [12]. Besides, the GI50 in [13] is 1.77 µM (inactive); in [14] it was 2.8 µM (inactive); in assay [15], 6.64 µM (inactive); in [16], 5.6 µM (inactive); in assay [17], 2.52 µM (inactive); in [18], 4.4 µM (inactive). Moreover, the GI50 in [19] was 2.29 µM (inactive).
